Molecules are shown by their SMILES. pEC50: −log10 of the molar value. Where a name gives a salt, the structure may show the parent alone.

Assay [1] concerns the target T1, S1P1 receptor (S1P1 expressing RH7777 membranes) (Homo sapiens, UniProt P21453).
T1 construct: expressed in transfected cells; host or cells: RH7777 cells (membranes)
The assay can be described thus: S1P1 GTPγS assay. Type of assay: biochemical. To be noted: tested in one of the above S1P1 assays (two GTPγS formats). Put shortly:
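Membranes from RH7777 cells expressing human S1P1 (1.5 μg/well) precoupled 30 min on ice to WGA SPA beads in 20 mM HEPES pH 7.4, 10 mM MgCl2, 100 mM NaCl, with 10 μM GDP and 90 μg/ml saponin. [35S]-GTPγS 0.5 nM final added with compound; SPA signal read immediately.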

The target of assay [2] is T2, S1P1 (PathHunter CHO-K1 EDG1 β-Arrestin cell line) (Homo sapiens, UniProt P21453).
T2 construct: host or cells: PathHunter CHO-K1 EDG1 β-Arrestin cell line
T2 sequence (P21453 whole entry): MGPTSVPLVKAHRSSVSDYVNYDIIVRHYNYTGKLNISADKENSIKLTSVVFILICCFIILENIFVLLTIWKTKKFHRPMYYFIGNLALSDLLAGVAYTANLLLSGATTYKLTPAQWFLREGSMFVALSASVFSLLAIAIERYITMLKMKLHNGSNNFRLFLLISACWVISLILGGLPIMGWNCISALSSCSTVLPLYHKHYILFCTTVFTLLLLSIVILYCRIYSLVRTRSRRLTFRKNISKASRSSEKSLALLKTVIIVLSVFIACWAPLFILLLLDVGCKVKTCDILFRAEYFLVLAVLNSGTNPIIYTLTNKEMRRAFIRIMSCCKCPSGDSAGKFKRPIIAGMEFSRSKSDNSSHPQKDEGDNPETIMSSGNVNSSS
T2 sequence (P32121 whole entry partner): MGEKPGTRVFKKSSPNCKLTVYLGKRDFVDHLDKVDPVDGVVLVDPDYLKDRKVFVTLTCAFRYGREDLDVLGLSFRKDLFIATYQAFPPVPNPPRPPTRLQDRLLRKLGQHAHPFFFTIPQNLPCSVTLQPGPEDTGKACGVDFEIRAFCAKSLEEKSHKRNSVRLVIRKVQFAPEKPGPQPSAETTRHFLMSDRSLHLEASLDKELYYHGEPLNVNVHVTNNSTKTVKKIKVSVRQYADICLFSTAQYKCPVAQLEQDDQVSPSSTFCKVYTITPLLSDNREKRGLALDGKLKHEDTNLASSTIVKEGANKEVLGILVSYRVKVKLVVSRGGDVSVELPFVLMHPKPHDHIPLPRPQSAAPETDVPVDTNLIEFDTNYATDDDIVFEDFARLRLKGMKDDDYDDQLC
The assay can be described thus: S1P-1 β-Arrestin recruitment assay. To be noted: CHO-K1 EDG1 β-Arrestin cells, chemi-luminescence. Type of assay: cell-based. How it is done: S1P-1 β-Arrestin Recruitment Assay
β-Arrestin recruitment assays were carried out using the PathHunter CHO-K1 EDG1
β-Arrestin cell line (DiscoveRx Corporation) in a chemi-luminescence detection assay. This cell line stably expresses β-Arrestin 2 and S1P1 fused to complementing portions of β-galactosidase (‘EA’ and ‘pro-link’, respectively) which associate upon Arrestin recruitment to form functional β-galactosidase enzyme.
Cells were grown to 80% confluency in Growth Medium (F12 nutrient HAMS supplemented with 10% heat-inactivated USA FBS, 1% L-glutamax, 800 μg/ml Geneticin and 300 μg/ml Hygromycin). Cells were harvested from the flask using Enzyme Free Cell Dissociation Buffer (Gibco) and washed from flasks with Optimem solution (Gibco). Cells were then centrifuged at 1000 rpm for 2-3 min and resuspended in Assay Buffer (Prepared from Sigma kit H1387 supplemented with 20 ml/L HEPES, 4.7 ml/L NaHCO3, 0.1% pluronic acid F-68 solution, 0.1% BSA and adjusted to pH 7.4 using sodium hydroxide at 1×10^6 cells/ml. Cells were dispensed into assay plates containing compounds (100n1/well of a solution of test compound in 100% DMSO) at 1×10^4 cells/well and incubated at 37° C./5% CO2 for 90 min followed by 15 min at room temperature. 5 μl detection mix (1 part Galacton Star, 5 parts Emerald II, 19 parts Assay Buffer; DiscoveRx) were added per well and the plates incubated at room temperature for 60 min. Luminescence was quantified using a Viewlux plate reader.

T1 sequence (P21453 whole entry): as the sequence (P21453 whole entry) above

By pEC50 is commonly meant the negative decadic logarithm of the EC50, by convention in mol/L. Take `Cc1c(-c2noc(-c3ccc(OC(C)C)c(C#N)c3)n2)ccc2c1CCN(CCC(=O)N(C)C)C2` [Example 2, 3-[6-(5-{3-Cyano-4-[(1-methylethyl)oxy]phenyl}-1,2,4-oxadiazol-3-yl)-5-methyl-3,4-dihydro-2(1H)-isoquinolinyl]-N,N-dimethylpropanamide]: the negative logarithm of the EC50 (pEC50) in assay [1] and in assay [2] was not below 7.00 throughout.
Regarding `CC(C)Oc1ccc(-c2nc(-c3ccc4c(c3)CCN(CCC(N)=O)CC4)no2)cc1C#N` [Example 22, 3-[7-(5-{3-Cyano-4-[(1-methylethyl)oxy]phenyl}-1,2,4-oxadiazol-3-yl)-1,2,4,5-tetrahydro-3H-3-benzazepin-3-yl]propanamide], the figures for the pEC50 in assay [1] and in assay [2] were not below 7.00 and not below 8.00, respectively.
The matching figures for `Cc1c(-c2noc(-c3ccc(OC(C)C)c(C#N)c3)n2)ccc2c1CCN(C(=O)CCN)C2` [Example 39, 5-[3-(2-β-Alanyl-5-methyl-1,2,3,4-tetrahydro-6-isoquinolinyl)-1,2,4-oxadiazol-5-yl]-2-[(1-methylethyl)oxy]benzonitrile hydrochloride]: not below 7.00 and not below 8.00.
The corresponding values for `COC(=O)NCCN1CCc2ccc(-c3noc(-c4ccc(OC(C)C)c(C#N)c4)n3)cc2CC1` [Example 100, methyl {2-[7-(5-{3-cyano-4-[(1-methylethyl)oxy]phenyl}-1,2,4-oxadiazol-3-yl)-1,2,4,5-tetrahydro-3H-3-benzazepin-3-yl]ethyl}carbamate] are not below 8.00 and not below 8.00.
The matching figures for `CC(C)Oc1ccc(-c2nc(-c3ccc4c(c3)CCN(CCCC(=O)N(C)C)CC4)no2)cc1C#N` [Example 26, 4-[7-(5-{3-Cyano-4-[(1-methylethyl)oxy]phenyl}-1,2,4-oxadiazol-3-yl)-1,2,4,5-tetrahydro-3H-3-benzazepin-3-yl]-N,N-dimethylbutanamide]: not below 7.00 and not below 8.00.
Turning to `CC(C)Oc1ccc(-c2nc(-c3ccc4c(c3)CCN(CC(=O)NC[C@H](O)CO)CC4)no2)cc1C#N` [Example 194, 2-[7-(5-{3-cyano-4-[(1-methylethyl)oxy]phenyl}-1,2,4-oxadiazol-3-yl)-1,2,4,5-tetrahydro-3H-3-benzazepin-3-yl]-N-[(2S)-2,3-dihydroxypropyl]acetamide hydrochloride], the pEC50 was not below 7.00 in assay [1] and not below 8.00 in assay [2].
The corresponding values for `CNC(=O)CCN1CCc2c(ccc(-c3noc(-c4ccc(OC(C)C)c(C#N)c4)n3)c2C)C1` [Example 43, 3-[6-(5-{3-cyano-4-[(1-methylethyl)oxy]phenyl}-1,2,4-oxadiazol-3-yl)-5-methyl-3,4-dihydro-2(1H)-isoquinolinyl]-N-methylpropanamide] are not below 8.00 and not below 8.00.
The corresponding values for `Cc1c(-c2nnc(-c3ccc(OC(C)C)c(C#N)c3)s2)ccc2c1CCN(CCC(N)=O)C2` [Example 10, 3-[6-(5-{3-Cyano-4-[(1-methylethyl)oxy]phenyl}-1,3,4-thiadiazol-2-yl)-5-methyl-3,4-dihydro-2(1H)-isoquinolinyl]propanamide] are not below 7.00 and not below 8.00.
The corresponding values for `Cc1c(-c2noc(-c3ccc(OC(C)C)c(C#N)c3)n2)ccc2c1CCN(CCC(N)=O)C2` [Example 1, 3-[6-(5-{3-Cyano-4-[(1-methylethyl)oxy]phenyl}-1,2,4-oxadiazol-3-yl)-5-methyl-3,4-dihydro-2(1H)-isoquinolinyl]propanamide] are not below 7.00 and not below 8.00.
Regarding `CC(C)Oc1ccc(-c2nc(-c3ccc4c(c3)CCN(CC(=O)N[C@@H](C)CO)CC4)no2)cc1C#N` [Example 80, 2-[7-(5-{3-cyano-4-[(1-methylethyl)oxy]phenyl}-1,2,4-oxadiazol-3-yl)-1,2,4,5-tetrahydro-3H-3-benzazepin-3-yl]-N-[(1S)-2-hydroxy-1-methylethyl]acetamide hydrochloride], the figures for the negative logarithm of the EC50 (pEC50) in assay [1] and in assay [2] were not below 7.00 and not below 8.00, respectively.
The matching figures for `Cc1c(-c2noc(-c3ccc(OC(C)C)c(C#N)c3)n2)ccc2c1CCN(CCCO)C2` [Example 8, 5-{3-[2-(3-Hydroxypropyl)-5-methyl-1,2,3,4-tetrahydro-6-isoquinolinyl]-1,2,4-oxadiazol-5-yl}-2-[(1-methylethyl)oxy]benzonitrile]: not below 7.00 and not below 8.00.
The matching figures for `CC(C)Nc1ncc(-c2nc(-c3ccc4c(c3)CCN(C(=O)CN)CC4)no2)cc1C#N` [Example 112, 5-[3-(3-glycyl-2,3,4,5-tetrahydro-1H-3-benzazepin-7-yl)-1,2,4-oxadiazol-5-yl]-2-[(1-methylethyl)amino]-3-pyridinecarbonitrile]: not below 6.00 and not below 7.00.
On to `CC(C)Oc1ccc(-c2nc(-c3ccc4c(c3)CCN(C(=O)CNC(CO)CO)CC4)no2)cc1C#N` [Example 197, 5-[3-(3-{N-[2-hydroxy-1-(hydroxymethyl)ethyl]glycyl}-2,3,4,5-tetrahydro-1H-3-benzazepin-7-yl)-1,2,4-oxadiazol-5-yl]-2-[(1-methylethyl)oxy]benzonitrile hydrochloride], for which the values for the negative logarithm of the EC50 (pEC50) in assay [1] and in assay [2] were not below 7.00 and not below 8.00, respectively.
For the compound `Cc1c(-c2noc(-c3ccc(OC(C)C)c(C#N)c3)n2)ccc2c1CCN(CC(=O)NCCO)CC2` [Example 146, 2-[7-(5-{3-cyano-4-[(1-methylethyl)oxy]phenyl}-1,2,4-oxadiazol-3-yl)-6-methyl-1,2,4,5-tetrahydro-3H-3-benzazepin-3-yl]-N-(2-hydroxyethyl)acetamide], the pEC50 was not below 7.00 in assay [1] and not below 8.00 in assay [2].
The matching figures for `Cc1c(-c2noc(-c3ccc(OC(C)C)c(C#N)c3)n2)ccc2c1CCN(CCCC(N)=O)C2` [Example 4, 4-[6-(5-{3-Cyano-4-[(1-methylethyl)oxy]phenyl}-1,2,4-oxadiazol-3-yl)-5-methyl-3,4-dihydro-2(1H)-isoquinolinyl]butanamide]: not below 7.00 and not below 8.00.
The matching figures for `Cc1c(-c2noc(-c3cnc(OC(C)C)c(C#N)c3)n2)ccc2c1CCN(C[C@H](O)CO)C2` [Example 132, 5-(3-{2-[(2S)-2,3-dihydroxypropyl]-5-methyl-1,2,3,4-tetrahydro-6-isoquinolinyl}-1,2,4-oxadiazol-5-yl)-2-[(1-methylethyl)oxy]-3-pyridinecarbonitrile]: not below 6.00 and not below 7.00.
The matching figures for `CC(C)Oc1ccc(-c2nc(-c3ccc4c(c3)CCN(CCCC(N)=O)CC4)no2)cc1C#N` [Example 25, 4-[7-(5-{3-Cyano-4-[(1-methylethyl)oxy]phenyl}-1,2,4-oxadiazol-3-yl)-1,2,4,5-tetrahydro-3H-3-benzazepin-3-yl]butanamide]: not below 7.00 and not below 8.00.
For `CC(C)Oc1ncc(-c2nc(-c3ccc4c(c3)CCN(C(=O)[C@@H](N)[C@@H](C)O)CC4)no2)cc1C#N` [Example 77, 2-[(1-methylethyl)oxy]-5-[3-(3-L-threonyl-2,3,4,5-tetrahydro-1H-3-benzazepin-7-yl)-1,2,4-oxadiazol-5-yl]-3-pyridinecarbonitrile hydrochloride], the negative logarithm of the EC50 (pEC50) in assay [1] was not below 6.00; in assay [2], not below 7.00.
For `Cc1c(-c2noc(-c3ccc(OC(C)C)c(C#N)c3)n2)ccc2c1CCN(CC(=O)NC(CO)CO)C2` [Example 125, 2-[6-(5-{3-cyano-4-[(1-methylethyl)oxy]phenyl}-1,2,4-oxadiazol-3-yl)-5-methyl-3,4-dihydro-2(1H)-isoquinolinyl]-N-[2-hydroxy-1-(hydroxymethyl)ethyl]acetamide hydrochloride], the pEC50 in assay [1] was not below 7.00; in assay [2], not below 8.00.
The matching figures for `CC(C)Oc1ccc(-c2nc(-c3ccc4c(c3)CCN(C[C@@H](O)CO)CC4)no2)cc1C#N` [Example 74, 5-(3-{3-[(2R)-2,3-dihydroxypropyl]-2,3,4,5-tetrahydro-1H-3-benzazepin-7-yl}-1,2,4-oxadiazol-5-yl)-2-[(1-methylethyl)oxy]benzonitrile]: not below 7.00 and not below 7.00.
The matching figures for `Cc1c(-c2noc(-c3ccc(OC(C)C)c(C#N)c3)n2)ccc2c1CCN(CC(=O)N[C@H](C)CO)C2` [Example 118, 2-[6-(5-{3-cyano-4-[(1-methylethyl)oxy]phenyl}-1,2,4-oxadiazol-3-yl)-5-methyl-3,4-dihydro-2(1H)-isoquinolinyl]-N-(1R)-2-hydroxy-1-methylethyl]acetamide hydrochloride]: not below 7.00 and not below 8.00.

The values are drawn from patent US20120101083A1, “S1P1 AGONISTS COMPRISING A BICYCLIC N-CONTAINING RING” (GLAXO GROUP LIMITED, priority 2009, published 2012).
